According to patent US20190321311A1, “Cancer Treatment by Simultaneous Targeting Energy Metabolism and Intracellular pH” (Deutsches Krebsforschungszentrum, priority 2016, published 2019):
Where two headings read alike, the source gives them in different places.

Key:
Mouse melanoma B16F10 = experiment: Cell viability assay, CellTiter-Glo, B16F10
Description: (§1) Indicated cells were treated with indicated drug combinations for 48 h or as indicated in conditions imitating tumor environment—RPMI supplemented with 10% FCS and 20 mM PIPES, adjusted to pH 6.5. After treatment, cells were analyzed for cell viability: • using CellTiter-Blue® Cell Viability Assay, Promega according to manufacturer recommendations. For each treatment, the fraction (%) of viable cells are indicated. Untreated viable cells were set to 100%. Average data of 2 independent experiments are presented. Each independent experiment contained 4 biological replicates for each condition. • using CellTiter-Glo® Cell Viability Assay, Promega according manufacturer recommendations. For each treatment the fraction (%) of viable cells are indicated. Untreated viable cells were set to 100%. Each measurement represents the mean value of 4 biological replicates for each condition.

Lung cancer H1975 = experiment: Cell viability assay, CellTiter-Glo, H1975; settings: Homo sapiens, NCI-H1975, 72 h, pH 6.5, read-out: fraction (%) of viable cells
Description: as §1

Sox4 [1] = type: cell-based; settings: non-malignant HEK293t cells, Metformin 72 hours
Description: (§2) For gene expression measurement, cells were seeded in 6 well plates. On the following day, cells were treated with 6 mM Metformin for 48 h in normal RPMI medium supplemented with 10% FCS. Cells were harvested using Trypsin/EDTA and divided in up to 3 aliquots. A first aliquot was used for RNA preparation using RNeasy kit (Qiagen) and subsequent quantitative reverse transcription-PCR (qRT-PCR) analysis with LC480 LightCycler (Roche). A second aliquot was extracted with Saponin buffer (0.05% Saponin, 1 mM MgCl2, 1×TBS, 2 mM ME, 1× protein inhibitor cocktail (Roche) for obtaining cytoplasmic protein fraction. This fraction was used for b-catenin protein detection. Third aliquot was extracted with Triton lysis buffer ((TBS (50 mM Tris pH7.4, 150 mM NaCl, 2.7 mM KCl), 1% Triton X-100, 2 mM β-mercaptoethanol (ME), 1 mM MgCl2, 10 mM sodium pyrophosphate, 10 mM NaF, 1× proteinase inhibitor cocktail). This aliquot was used for Sox4 and a-tubulin (control) protein detection. For second and third aliquots 20-35 μl of buffer was used for 500 000 cells. After centrifugation extracts were used for Western blot analysis.
Experiments were done as in example 3. Cells were densely seeded on 6-well plates. […] For non-cancer HEK293Tcells, non modified RPMI medium supplemented with 10% FCS was used. Cells were extracted only in Triton lysis buffer (as in example 3) and analyzed in Western Blot.

H1975 cells = type: cell-based; settings: H1975 cells expressing EC-GFP, Metformin for 48 hours
Text: FIG. 1: Treatment with Metformin and combined preparations causes an intracellular pH drop in cancer cell lines. Intracellular pH measurements were done in cells expressing a pH sensitive variant of GFP (EC-GFP). Live cells were imaged at 405 nm and 488 nm excitation wavelengths to record control and pH-sensitive emissions, correspondingly. Eight biological replicates were done for each treatment. Error bars correspond to mean values±s.d.; P≤0.0001. a. […] Confocal microscopy of H1975 and HEK293 live cells expressing EC-GFP treated with Metformin for 48 hours. To rule out a possibility that GFP signal fading is due to degradation, after exposure to the drug, cells were transferred to media with pH 8.8 supplemented with 5 μM Nigericin for 30 minutes before re-imaging (Metformin pH 8.8 rescue). b, c. […] Intracellular pH measurements were done after cells were treated alone or in combination with Rotenone or/and Nigericin, and with Papaverine or/and Salinomycin for 27 or 48 hours in pH 6.5 buffer, as indicated.
Intracellular pH in indicated cancer cell lines and non-cancer 293T cells was measured using cell lines stabile expressing pH sensitive EC-GFP at two different excitation wave length to obtain 488 nm/405 nm ratios. […] 488/405 ratios were quantified using ImageJ (NIH) software.

Sox4 [2] = type: cell-based; settings: Metformin 72 hours
Description: Cells were densely seeded on 6-well plates. Starting on the following day, cells were treated with indicated drug combinations for 48 h in conditions imitating tumor environment: RPMI supplemented with 10% FCS and 20 mM PIPES, adjusted to pH 6.5. For non-cancer HEK293Tcells, non modified RPMI medium supplemented with 10% FCS was used. Cells were extracted only in Triton lysis buffer (as in example 3) and analyzed in Western Blot.
Cells were treated with combined preparations (Nigericin 10 nM, Rotenone 5 nM, Papaverine HCl 1 μm; Salinomycin 10 nM) with or without addition of NAC (N-acetyl cysteine) 1 mM, DOX (Doxycycline) and Minocycline 20 μM, Trolox (soluble form of vitamin E) 100 μM.

Wnt signaling pathway = type: cell-based; settings: cancer cell lines (FIG. 2A), 6 mM Metformin
Description: as §2
Experiment was done as in example 3. […] CHOP protein was detected in Triton lysis buffer extract.

Colon cancer DLD1 cells [3] = experiment: Cell viability assay, CellTiter-Blue, DLD1; settings: Homo sapiens, DLD-1, 72 h, pH 6.5, read-out: fraction (%) of viable cells
Description: as §1

Colon cancer DLD1 cells [4] = experiment: Cell viability assay, CellTiter-Glo, DLD1
Description: as §1

Lung cancer H1975 cells = experiment: Cell viability assay, CellTiter-Blue, H1975; settings: Homo sapiens, NCI-H1975, 48 h, pH 6.5, read-out: fraction (%) of viable cells
Description: as §1

[5] = tested on: Pancreas cancer Bxpc3 cells; experiment: Cell viability assay, CellTiter-Glo, Bxpc3; settings: Homo sapiens, BXPC-3, 48 h, pH 6.5, read-out: fraction (%) of viable cells
Description: as §1

[6] = tested on: Breast cancer MDA-MB-231 cells; experiment: Cell viability assay, CellTiter-Blue, MDA-MB-231; settings: Homo sapiens, MDA-MB-231, 48 h, pH 6.5, read-out: fraction (%) of viable cells
Description: as §1

[7] = tested on: Prostate cancer PC3 cells; experiment: Cell viability assay, CellTiter-Glo, PC3; settings: Homo sapiens, PC-3, 48 h, pH 6.5, read-out: fraction (%) of viable cells
Description: as §1

Melanoma A375 cells = experiment: Cell viability assay, CellTiter-Glo, A375; settings: Homo sapiens, A-375, 48 h, pH 6.5, read-out: fraction (%) of viable cells
Description: as §1

[8] = Homo sapiens, DLD-1, 72 h, pH 6.5, read-out: fraction (%) of viable cells

Nc1ncnc2c1nc(Sc1ccc(Cl)cc1)n2[C@@H]1O[C@@H]2COP(=O)([O-])O[C@H]2[C@H]1O.[Na+] [8-CPT-cAMP, 8-(4-Chlorophenylthio)-adenosine-3′,5′-cyclic monophosphate]
relative values of cell viability (Mouse melanoma B16F10; 8-CPT-cAMP 100 μM alone, 48 h, pH 6.5): 86%

C=C[C@@]1(C)CC(=O)[C@]2(O)[C@@]3(C)[C@@H](O)CCC(C)(C)[C@@H]3[C@H](O)[C@H](OC(C)=O)[C@@]2(C)O1 [Forskolin, forskolin]
viability at 10 µM (Mouse melanoma B16F10; Mus musculus, B16-F10, 48 h, pH 6.5, read-out: relative values of cell viability, Forskolin 10 μM alone, pH 6.5): 78%

CO[C@@H]1[C@@H](OC)[C@H](C)[C@@](O)(CC(=O)O)O[C@H]1[C@H](C)[C@H]1O[C@@]2(CC[C@@](C)([C@H]3CC[C@@](C)([C@@H]4O[C@@H]([C@H]5O[C@](C)(O)[C@H](C)C[C@@H]5C)C[C@@H]4O[C@@H]4C[C@H](OC)[C@@H](OC)[C@H](C)O4)O3)O2)C[C@H](O)[C@H]1C [Maduramicin]
viability at 0.004 µM (Mouse melanoma B16F10; Mus musculus, B16-F10, 48 h, pH 6.5, read-out: fraction (%) of viable cells, Maduramicin 4.00 nM, Phenformin 0.00 μM, pH 6.5): 111%

CN(C)C(=N)N=C(N)N [Metformin]
viability at 94 µM (Lung cancer H1975): 84% | viability at 188 µM (Lung cancer H1975): 70% | viability at 375 µM (Lung cancer H1975): 45% | expression of Sox4 (Sox4 [1]): has no effect on Sox4 | intracellular pH (H1975 cells): causes intracellular acidification | viability at 750 µM (Mouse melanoma B16F10; Mus musculus, B16-F10, 48 h, pH 6.5, read-out: fraction (%) of viable cells, Metformin 750 μM, Monensin 0.00 nM, pH 6.5): 80% | viability at 1500 µM (Mouse melanoma B16F10; Mus musculus, B16-F10, 48 h, pH 6.5, read-out: fraction (%) of viable cells, Metformin 1500 μM, Monensin 0.00 nM, pH 6.5): 84% | viability at 3000 µM (Mouse melanoma B16F10; Mus musculus, B16-F10, 48 h, pH 6.5, read-out: fraction (%) of viable cells, Metformin 3000 μM, Monensin 0.00 nM, pH 6.5): 9% | expression of endogenous Sox4 (Sox4 [2]; DLD1 and HCT116 cells): inhibits expression of endogenous Sox4 | Wnt-inducible Sox4 expression (Sox4 [2]; H1703 and H1299 cells, Wnt3a conditioned media 48 hours): inhibits Wnt-inducible Sox4 | expression of endogenous Sox4 (Sox4 [2]; H1975 cells): inhibits expression of endogenous Sox4 | wnt signaling (Axin2 mRNA, cytoplasmic b-catenin) (Wnt signaling pathway): wnt signaling inhibitor

CC[C@@]1([C@@H]2O[C@@H]([C@H]3O[C@@](O)(CO)[C@H](C)C[C@@H]3C)C[C@@H]2C)CC[C@H]([C@]2(C)CC[C@]3(C[C@H](O)[C@@H](C)[C@@H]([C@@H](C)[C@@H](OC)[C@H](C)C(=O)O)O3)O2)O1 [Monensin]
viability at 0.005 µM (Lung cancer H1975): 55% | viability at 0.004 µM (Mouse melanoma B16F10; Mus musculus, B16-F10, 48 h, pH 6.5, read-out: fraction (%) of viable cells, Monensin 4.00 nM, Metformin 0.00 μM, pH 6.5): 111% | viability at 0.004 µM (Mouse melanoma B16F10; Mus musculus, B16-F10, 48 h, pH 6.5, read-out: fraction (%) of viable cells, Monensin 4.00 nM, Phenformin 0.00 μM, pH 6.5): 95% | viability at 0.005 µM (Colon cancer DLD1 cells [3]): 88% | viability at 0.01 µM (Colon cancer DLD1 cells [3]): 72% | viability at 0.02 µM (Colon cancer DLD1 cells [3]): 55% | fraction (%) of viable cells (Colon cancer DLD1 cells [4]; human, 72 h, 5 nM, pH 6.5): 112%

CO[C@@H]1C[C@@H](C[C@H]2CC[C@H](C)[C@H]([C@@H](C)C(=O)O)O2)O[C@]2(O[C@](C)([C@H]3CC[C@@](C)([C@@H]4O[C@@H]([C@H]5O[C@@](O)(CO)[C@H](C)C[C@@H]5C)C[C@@H]4C)O3)C[C@H]2C)[C@@H]1C [Nigericin]
viability at 0.0025 µM (Lung cancer H1975 cells): 93% | viability at 0.005 µM (Lung cancer H1975 cells): 95% | viability at 0.005 µM [5]: 39% | viability at 0.01 µM [5]: 35% | viability at 0.0025 µM [6]: 98% | viability at 0.005 µM [6]: 101% | viability at 0.005 µM [7]: 31% | viability at 0.01 µM [7]: 0% | viability at 0.00125 µM (Melanoma A375 cells): 58% | viability at 0.0025 µM (Melanoma A375 cells): 7% | viability at 0.005 µM (Colon cancer DLD1 cells [4]; [8]): 107% | viability at 0.01 µM (Colon cancer DLD1 cells [4]; [8]): 103%

[H]/N=C(/N)N/C(=N/[H])NCCc1ccccc1 [Phenformin]
viability at 4 µM (Mouse melanoma B16F10; Mus musculus, B16-F10, 48 h, pH 6.5, read-out: fraction (%) of viable cells, Phenformin 4 μM, Maduramicin 0.00 nM, pH 6.5 (Table 12)): 82% | viability at 4 µM (Mouse melanoma B16F10; Mus musculus, B16-F10, 48 h, pH 6.5, read-out: fraction (%) of viable cells, Phenformin 4 μM, Monensin 0.00 nM, pH 6.5 (Table 11)): 82% | viability at 8 µM (Mouse melanoma B16F10; Mus musculus, B16-F10, 48 h, pH 6.5, read-out: fraction (%) of viable cells, Phenformin 8 μM, Maduramicin 0.00 nM, pH 6.5 (Table 12)): 76% | viability at 8 µM (Mouse melanoma B16F10; Mus musculus, B16-F10, 48 h, pH 6.5, read-out: fraction (%) of viable cells, Phenformin 8 μM, Monensin 0.00 nM, pH 6.5 (Table 11)): 76% | viability at 16 µM (Mouse melanoma B16F10; Mus musculus, B16-F10, 48 h, pH 6.5, read-out: fraction (%) of viable cells, Phenformin 16 μM, Maduramicin 0.00 nM, pH 6.5 (Table 12)): 56% | viability at 16 µM (Mouse melanoma B16F10; Mus musculus, B16-F10, 48 h, pH 6.5, read-out: fraction (%) of viable cells, Phenformin 16 μM, Monensin 0.00 nM, pH 6.5 (Table 11)): 56%

C=C(C)[C@H]1Cc2c(ccc3c2O[C@@H]2COc4cc(OC)c(OC)cc4[C@@H]2C3=O)O1 [Rotenone]
viability at 0.0025 µM (Lung cancer H1975 cells): 103% | viability at 0.005 µM (Lung cancer H1975 cells): 104% | viability at 0.01 µM (Lung cancer H1975 cells): 110% | viability at 0.02 µM (Lung cancer H1975 cells): 84% | viability at 0.005 µM [5]: 104% | viability at 0.01 µM [5]: 89% | viability at 0.02 µM [5]: 59% | viability at 0.0025 µM [6]: 98% | viability at 0.005 µM [6]: 102% | viability at 0.01 µM [6]: 99% | viability at 0.02 µM [6]: 81% | viability at 0.005 µM [7]: 45% | viability at 0.01 µM [7]: 4% | viability at 0.02 µM [7]: 1% | viability at 0.00125 µM (Melanoma A375 cells): 96% | viability at 0.0025 µM (Melanoma A375 cells): 91% | viability at 0.005 µM (Melanoma A375 cells): 75% | viability at 0.005 µM (Colon cancer DLD1 cells [3]): 87% | viability at 0.005 µM (Colon cancer DLD1 cells [4]; [8]): 96% | viability at 0.01 µM (Colon cancer DLD1 cells [4]; [8]): 89% | viability at 0.02 µM (Colon cancer DLD1 cells [4]; [8]): 67%
